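These data come from cells grown in 96-well plates and exposed to compound for 48 hours at five concentrations. GI50: concentration for 50% inhibition of growth.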 Active and inactive are the calls of the source. Rule as the data show it: active = GI50 up to about 1.1 µM and inactive = higher.
Tests used:
Test in all cases: NCI-60 cell line screen, 48 h
786-0 = tested on: 786-0
A498 = tested on: A498
A549 = tested on: A549
ACHN = tested on: ACHN
BT-549 = tested on: BT-549
CAKI-1 = tested on: CAKI-1
CCRF-CEM = tested on: CCRF-CEM
COLO 205 = tested on: COLO 205
DU-145 = tested on: DU-145
EKVX = tested on: EKVX
HCC 2998 = tested on: HCC 2998
HCT-116 = tested on: HCT-116
HCT-15 = tested on: HCT-15
HL-60 = tested on: HL-60
HOP-62 = tested on: HOP-62
HT-29 = tested on: HT-29
Hs-578T = tested on: Hs-578T
IGROV-1 = tested on: IGROV-1
K562 = tested on: K562
KM12 = tested on: KM12
LOX IMVI = tested on: LOX IMVI
M14 = tested on: M14
MCF7 = tested on: MCF7
MDA-MB-435 = tested on: MDA-MB-435
MDA-N = tested on: MDA-N
MOLT-4 = tested on: MOLT-4
Malme-3M = tested on: Malme-3M
NCI-H226 = tested on: NCI-H226
NCI-H23 = tested on: NCI-H23
NCI-H460 = tested on: NCI-H460
NCI-H522 = tested on: NCI-H522
NCI/ADR-RES = tested on: NCI/ADR-RES
OVCAR-3 = tested on: OVCAR-3
OVCAR-4 = tested on: OVCAR-4
OVCAR-5 = tested on: OVCAR-5
OVCAR-8 = tested on: OVCAR-8
PC-3 = tested on: PC-3
RPMI-8226 = tested on: RPMI-8226
SF-268 = tested on: SF-268
SF-295 = tested on: SF-295
SF-539 = tested on: SF-539
SK-MEL-28 = tested on: SK-MEL-28
SK-MEL-2 = tested on: SK-MEL-2
SK-MEL-5 = tested on: SK-MEL-5
SK-OV-3 = tested on: SK-OV-3
SN12C = tested on: SN12C
SNB-19 = tested on: SNB-19
SNB-75 = tested on: SNB-75
SR = tested on: SR
SW-620 = tested on: SW-620
T47D = tested on: T47D
TK-10 = tested on: TK-10
U-251 = tested on: U-251
UACC-257 = tested on: UACC-257
UACC-62 = tested on: UACC-62
UO-31 = tested on: UO-31
HOP-92 = tested on: HOP-92
MDA-MB-231 = tested on: MDA-MB-231
RXF 393 = tested on: RXF 393

Measured: GI50

COc1cc2c(c(O)c1OC)C(=O)[C@@H]1CCC(=O)N1C2c1ccccc1 (some centres undefined)
inactive: 786-0 > 100 µM | A498 > 100 µM | A549 59 µM | ACHN 85.7 µM | BT-549 > 100 µM | CAKI-1 > 100 µM | CCRF-CEM 30.5 µM | COLO 205 > 100 µM | DU-145 > 100 µM | EKVX 51.9 µM | HCC 2998 > 100 µM | HCT-116 66.8 µM | HL-60 45.5 µM | HOP-62 > 100 µM | HT-29 87.7 µM | Hs-578T 40.5 µM | IGROV-1 > 100 µM | K562 38.6 µM | KM12 67.5 µM | LOX IMVI 97.1 µM | M14 > 100 µM | MCF7 > 100 µM | MDA-MB-435 90.6 µM | MDA-N > 100 µM | MOLT-4 36 µM | Malme-3M > 100 µM | NCI-H226 > 100 µM | NCI-H23 > 100 µM | NCI-H460 > 100 µM | NCI-H522 28.5 µM | NCI/ADR-RES > 100 µM | OVCAR-3 65.6 µM | OVCAR-4 > 100 µM | OVCAR-5 > 100 µM | OVCAR-8 57.5 µM | PC-3 31.8 µM | RPMI-8226 45.7 µM | SF-268 > 100 µM | SF-295 > 100 µM | SF-539 > 100 µM | SK-MEL-28 > 100 µM | SK-MEL-2 > 100 µM | SK-MEL-5 > 10 µM | SK-OV-3 > 100 µM | SN12C > 100 µM | SNB-19 > 100 µM | SNB-75 35.6 µM | SR 46.6 µM | SW-620 > 100 µM | T47D > 100 µM | TK-10 > 100 µM | U-251 63.1 µM | UACC-257 > 100 µM | UACC-62 44.5 µM | UO-31 39.6 µM
> 100 µM: HCT-15

O=C(Nc1sccc1S(=O)(=O)c1ccc(Cl)cc1)c1ccc(Cl)cc1Cl
inactive: 786-0 > 100 µM | A498 > 100 µM | A549 > 95.7 µM | ACHN > 100 µM | BT-549 > 100 µM | CAKI-1 > 100 µM | CCRF-CEM > 100 µM | COLO 205 > 100 µM | DU-145 > 100 µM | EKVX > 79.4 µM | HCT-116 > 100 µM | HL-60 > 100 µM | HOP-62 > 100 µM | HOP-92 > 93.1 µM | HT-29 > 76.2 µM | Hs-578T > 100 µM | IGROV-1 > 100 µM | K562 > 53.3 µM | KM12 82.2 µM | LOX IMVI > 74.6 µM | M14 > 100 µM | MCF7 44.6 µM | MDA-MB-231 > 100 µM | MDA-MB-435 14.5 µM | MOLT-4 > 85.9 µM | Malme-3M > 100 µM | NCI-H226 > 100 µM | NCI-H23 > 81.3 µM | NCI-H460 > 95.7 µM | NCI-H522 34.1 µM | NCI/ADR-RES > 100 µM | OVCAR-3 28.2 µM | OVCAR-4 > 93.8 µM | OVCAR-5 > 84.5 µM | OVCAR-8 > 100 µM | PC-3 > 100 µM | RPMI-8226 10.7 µM | RXF 393 > 100 µM | SF-268 > 100 µM | SF-295 37.8 µM | SF-539 > 100 µM | SK-MEL-28 > 100 µM | SK-MEL-2 > 100 µM | SK-MEL-5 47 µM | SK-OV-3 > 100 µM | SN12C > 100 µM | SNB-19 > 100 µM | SNB-75 > 100 µM | SR 12.1 µM | SW-620 > 100 µM | T47D 19.1 µM | TK-10 > 100 µM | U-251 > 78.7 µM | UACC-257 23.4 µM | UACC-62 > 62.2 µM | UO-31 > 100 µM
> 100 µM: HCT-15

COc1ccc(-c2c(C#N)c(-c3ccccc3)n(NS(=O)(=O)c3ccccc3)c(=O)c2C#N)cc1
inactive: 786-0 > 100 µM | A498 > 100 µM | A549 > 100 µM | ACHN > 100 µM | BT-549 > 100 µM | CAKI-1 > 100 µM | CCRF-CEM 36.9 µM | COLO 205 > 100 µM | EKVX > 100 µM | HCC 2998 81.5 µM | HCT-116 > 100 µM | HL-60 60.3 µM | HOP-62 95.1 µM | HOP-92 26.2 µM | HT-29 > 100 µM | Hs-578T 41.6 µM | IGROV-1 36.3 µM | K562 65.9 µM | KM12 > 100 µM | LOX IMVI 60.4 µM | M14 > 100 µM | MCF7 50.5 µM | MDA-MB-231 > 100 µM | MDA-MB-435 > 100 µM | MDA-N > 100 µM | MOLT-4 27.6 µM | Malme-3M 41.6 µM | NCI-H226 > 100 µM | NCI-H460 > 100 µM | NCI-H522 20.5 µM | NCI/ADR-RES 53.3 µM | OVCAR-4 > 100 µM | OVCAR-5 > 100 µM | OVCAR-8 97.1 µM | PC-3 59 µM | RPMI-8226 29.2 µM | RXF 393 76.4 µM | SF-268 97.3 µM | SF-295 > 100 µM | SF-539 90.6 µM | SK-MEL-28 > 100 µM | SK-MEL-2 94.6 µM | SK-MEL-5 55.1 µM | SK-OV-3 > 100 µM | SN12C > 100 µM | SNB-19 92.7 µM | SNB-75 50.8 µM | SW-620 > 100 µM | TK-10 > 100 µM | U-251 71.8 µM | UACC-257 > 100 µM | UACC-62 79.8 µM
> 100 µM: HCT-15

Cc1oc(N)c(S(=O)(=O)c2ccc(Cl)cc2)c1C
inactive: 786-0 73.8 µM | A498 > 100 µM | A549 34.4 µM | ACHN 37 µM | BT-549 17.6 µM | CCRF-CEM 78.9 µM | COLO 205 > 10 µM | DU-145 > 100 µM | EKVX 45 µM | HCC 2998 23.8 µM | HCT-116 39.4 µM | HL-60 88.9 µM | HOP-92 > 100 µM | HT-29 54.3 µM | Hs-578T 50.7 µM | IGROV-1 85.5 µM | K562 53.6 µM | KM12 37.1 µM | M14 29.6 µM | MCF7 50.4 µM | MDA-MB-435 55.3 µM | MOLT-4 47.3 µM | Malme-3M 29.9 µM | NCI-H226 53.1 µM | NCI-H23 32.8 µM | NCI-H460 22.2 µM | NCI-H522 30 µM | NCI/ADR-RES 34.9 µM | OVCAR-3 29.1 µM | OVCAR-4 21.7 µM | OVCAR-5 > 100 µM | OVCAR-8 50.5 µM | PC-3 23.7 µM | RPMI-8226 40.2 µM | RXF 393 30.8 µM | SF-268 43.1 µM | SF-295 39.5 µM | SF-539 25.8 µM | SK-MEL-28 > 100 µM | SK-MEL-2 28 µM | SK-MEL-5 44.7 µM | SK-OV-3 42.6 µM | SNB-19 > 100 µM | SNB-75 29.9 µM | SR 86.3 µM | SW-620 > 100 µM | T47D 31.2 µM | TK-10 83.6 µM | U-251 > 100 µM | UACC-257 40.2 µM | UACC-62 37.9 µM | UO-31 37 µM
34 µM: HCT-15

From ChEMBL document CHEMBL1201862, “PubChem BioAssay data set” (2004)
